Assay results taken from patent publication US11981677B2, “Further substituted triazolo quinoxaline derivatives” (Grünenthal GmbH, priority 2018, dated 2024).

Target: T1, Glucocorticoid Receptor (Homo sapiens, UniProt P04150)
T1 construct: expressed in transfected cells
T1 sequence (P04150 524-758 limits assumed): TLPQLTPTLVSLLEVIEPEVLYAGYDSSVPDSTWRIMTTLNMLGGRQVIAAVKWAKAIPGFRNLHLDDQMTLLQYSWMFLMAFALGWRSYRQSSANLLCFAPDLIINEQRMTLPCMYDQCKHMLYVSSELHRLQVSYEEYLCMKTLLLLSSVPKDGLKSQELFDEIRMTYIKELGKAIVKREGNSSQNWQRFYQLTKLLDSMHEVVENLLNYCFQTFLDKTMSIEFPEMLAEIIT
Assay: Agonistic mode of action on the glucocorticoid receptor (CHO-Gal4/GR luciferase reporter cell line)
Type: cell-based
Conditions: CHO-Gal4/GR luciferase reporter cells; observed in the agonistic assay or the antagonistic assay (mode not given); read-out: IC50 or EC50 range
Summary of the method: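 CHO cells stably expressing GAL4 DBD–GR ligand-binding domain fusion with GAL4-UAS firefly luciferase reporter, seeded 24 h, then treated in Opti-MEM with 8 half-log concentrations from 10 μM to 0.003 μM (0.5% DMSO), quadruplicate. Luminescence read on FLIPR after lysis with Triton/luciferin; EC50 calculated.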

Row | IC50 or EC50 (antagonist or agonist mode, not stated per compound) | Compound
1 | 100 to 1000 nM | COc1cc(-c2cc(F)c3c(c2OC)-n2c(C)nnc2C(C)(C)N3)c2ccn(S(C)(=O)=O)c2c1 [Example 524, 6-Fluoro-9-methoxy-8-(6-methoxy-1-methylsulfonyl-1H-indol-4-yl)-1,4,4-trimethyl-5H-[1,2,4]triazolo[4,3-a]quinoxaline]
2 | < 100 nM | Cc1c(-c2cc(F)cc3c2cnn3S(C)(=O)=O)c(Cl)c(F)c2c1-n1c(C)nnc1C(C)(C)N2 [Example 525, 7-Chloro-6-fluoro-8-(6-fluoro-1-methylsulfonyl-1H-indazol-4-yl)-1,4,4,9-tetramethyl-5H-[1,2,4]triazolo[4,3-a]quinoxaline]
3 | < 100 nM | Cc1c(-c2cc(F)cc3c(C)c[nH]c23)c(Cl)c(F)c2c1-n1c(C)nnc1C(C)(C)N2 [Example 526, 7-Chloro-6-fluoro-8-(5-fluoro-3-methyl-1H-indol-7-yl)-1,4,4,9-tetramethyl-5H-[1,2,4]triazolo[4,3-a]quinoxaline]
4 | 100 to 1000 nM | Cc1c(-c2cccc3c2cnn3S(C)(=O)=O)c(Cl)c(F)c2c1-n1c(C)nnc1C(C)(C)N2 [Example 527, 7-Chloro-6-fluoro-1,4,4,9-tetramethyl-8-(1-methylsulfonyl-1H-indazol-4-yl)-5H-[1,2,4]triazolo[4,3-a]quinoxaline]
